# Data as given in the supplement of paper PMC12463676, “Small-molecule dissolution of stress granules by redox modulation benefits ALS models” (Nature Chemical Biology, 2025).
# Key:
# potassium arsenate = compound: O=[As]([O-])(O)O.[K+] [potassium arsenate]; assay: thermal stability z-score vs DMSO; higher = more thermally stabilized by treatment; settings: HeLa; arsenate concentration 1 mM
# Procedure: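 Cellular thermal proteome profiling in HeLa cells treated with 1 mM arsenate for 1 h (DMSO pretreatment), heated to ten temperatures (37-66.3 °C). Soluble protein was quantified by TMT mass spectrometry relative to DMSO controls; the thermal stability score was transformed to a z-score; mean of n = 3 experiments.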
# lipoamide = compound: NC(=O)CCCCC1CCSS1 [lipoamide]; assay: as above; settings: HeLa, lipoamide concentration 100 µM
# Procedure: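 Cellular thermal proteome profiling in HeLa cells. Cells were treated with 100 µM lipoamide for 1 h, with or without 1 mM arsenate for a further 1 h, then heated to ten temperatures (37-66.3 °C), and soluble protein was quantified by TMT mass spectrometry relative to 0.1% DMSO controls. The thermal stability score (sum of log2 fold changes minus the abundance score) was transformed to a z-score; mean of n = 3 experiments.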
# [1] = arsenate co-treatment: 1 mM arsenate 1 h
# 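Also: each temperature applied for 3 min, abundance score taken as mean log2 fold change at the two lowest temperatures, z-score obtained by mean subtraction and division by SD.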
# Chain of UniProt Q9UHV9 (Q9UHV9 whole entry): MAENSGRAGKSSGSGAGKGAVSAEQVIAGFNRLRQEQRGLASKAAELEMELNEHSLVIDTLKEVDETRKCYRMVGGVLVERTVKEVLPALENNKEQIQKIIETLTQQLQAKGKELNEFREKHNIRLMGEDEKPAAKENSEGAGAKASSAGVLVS
# Chain of UniProt O00468 (O00468 whole entry): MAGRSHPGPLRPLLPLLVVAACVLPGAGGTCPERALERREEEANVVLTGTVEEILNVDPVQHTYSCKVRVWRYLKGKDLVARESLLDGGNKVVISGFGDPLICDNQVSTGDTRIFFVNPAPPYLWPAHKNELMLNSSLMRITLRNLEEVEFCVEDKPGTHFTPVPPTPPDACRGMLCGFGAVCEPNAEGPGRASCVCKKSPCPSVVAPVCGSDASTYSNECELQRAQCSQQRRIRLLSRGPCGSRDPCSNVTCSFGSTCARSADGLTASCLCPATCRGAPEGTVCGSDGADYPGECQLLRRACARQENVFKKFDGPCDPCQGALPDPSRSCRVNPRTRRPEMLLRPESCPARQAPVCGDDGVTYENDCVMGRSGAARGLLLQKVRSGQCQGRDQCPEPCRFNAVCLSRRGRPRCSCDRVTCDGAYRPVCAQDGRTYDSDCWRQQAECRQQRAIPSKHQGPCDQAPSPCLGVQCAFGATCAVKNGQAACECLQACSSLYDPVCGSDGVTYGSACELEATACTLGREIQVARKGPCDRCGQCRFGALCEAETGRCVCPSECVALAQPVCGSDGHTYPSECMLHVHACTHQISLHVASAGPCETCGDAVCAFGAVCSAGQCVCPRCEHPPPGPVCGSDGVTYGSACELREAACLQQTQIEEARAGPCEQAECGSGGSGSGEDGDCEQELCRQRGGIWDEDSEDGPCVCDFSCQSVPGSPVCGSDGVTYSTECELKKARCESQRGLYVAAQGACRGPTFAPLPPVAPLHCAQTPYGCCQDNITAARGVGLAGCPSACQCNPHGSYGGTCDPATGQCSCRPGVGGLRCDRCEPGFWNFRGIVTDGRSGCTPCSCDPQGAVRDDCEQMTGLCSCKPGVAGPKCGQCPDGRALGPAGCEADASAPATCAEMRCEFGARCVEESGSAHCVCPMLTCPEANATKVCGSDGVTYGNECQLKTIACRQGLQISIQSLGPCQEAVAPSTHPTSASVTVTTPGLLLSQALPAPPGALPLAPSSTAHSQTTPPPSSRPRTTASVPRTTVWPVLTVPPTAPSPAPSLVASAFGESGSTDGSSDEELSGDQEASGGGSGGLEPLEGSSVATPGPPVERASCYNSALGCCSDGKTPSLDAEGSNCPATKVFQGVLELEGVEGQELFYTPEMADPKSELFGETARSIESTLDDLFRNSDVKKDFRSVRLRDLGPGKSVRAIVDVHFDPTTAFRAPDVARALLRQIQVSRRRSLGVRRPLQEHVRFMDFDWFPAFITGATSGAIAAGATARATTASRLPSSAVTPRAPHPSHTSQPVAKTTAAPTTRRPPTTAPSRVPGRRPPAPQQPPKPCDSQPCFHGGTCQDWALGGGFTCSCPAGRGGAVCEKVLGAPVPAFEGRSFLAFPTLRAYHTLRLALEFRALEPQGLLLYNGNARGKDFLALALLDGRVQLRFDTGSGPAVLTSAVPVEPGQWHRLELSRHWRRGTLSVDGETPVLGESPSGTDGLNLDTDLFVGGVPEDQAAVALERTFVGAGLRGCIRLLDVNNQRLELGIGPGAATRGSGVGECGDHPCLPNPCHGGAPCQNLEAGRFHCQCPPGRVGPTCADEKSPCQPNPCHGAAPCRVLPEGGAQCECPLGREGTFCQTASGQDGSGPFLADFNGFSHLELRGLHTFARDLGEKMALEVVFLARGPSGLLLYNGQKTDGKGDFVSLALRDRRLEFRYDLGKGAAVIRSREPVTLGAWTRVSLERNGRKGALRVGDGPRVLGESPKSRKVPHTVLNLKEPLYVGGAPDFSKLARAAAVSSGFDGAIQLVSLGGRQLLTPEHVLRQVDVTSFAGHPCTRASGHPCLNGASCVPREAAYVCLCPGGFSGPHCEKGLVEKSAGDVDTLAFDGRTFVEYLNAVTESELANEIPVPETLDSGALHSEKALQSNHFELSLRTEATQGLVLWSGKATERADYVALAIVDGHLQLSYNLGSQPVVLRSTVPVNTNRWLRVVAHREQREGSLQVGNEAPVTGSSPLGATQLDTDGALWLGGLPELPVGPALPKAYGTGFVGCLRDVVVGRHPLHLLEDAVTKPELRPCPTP
# Chain of UniProt P61916 (P61916 whole entry): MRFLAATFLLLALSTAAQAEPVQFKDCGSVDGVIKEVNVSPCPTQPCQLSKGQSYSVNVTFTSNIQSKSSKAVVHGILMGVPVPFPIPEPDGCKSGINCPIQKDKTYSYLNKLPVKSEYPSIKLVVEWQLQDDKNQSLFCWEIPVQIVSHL
# Chain of UniProt Q9NZT2 (Q9NZT2 whole entry): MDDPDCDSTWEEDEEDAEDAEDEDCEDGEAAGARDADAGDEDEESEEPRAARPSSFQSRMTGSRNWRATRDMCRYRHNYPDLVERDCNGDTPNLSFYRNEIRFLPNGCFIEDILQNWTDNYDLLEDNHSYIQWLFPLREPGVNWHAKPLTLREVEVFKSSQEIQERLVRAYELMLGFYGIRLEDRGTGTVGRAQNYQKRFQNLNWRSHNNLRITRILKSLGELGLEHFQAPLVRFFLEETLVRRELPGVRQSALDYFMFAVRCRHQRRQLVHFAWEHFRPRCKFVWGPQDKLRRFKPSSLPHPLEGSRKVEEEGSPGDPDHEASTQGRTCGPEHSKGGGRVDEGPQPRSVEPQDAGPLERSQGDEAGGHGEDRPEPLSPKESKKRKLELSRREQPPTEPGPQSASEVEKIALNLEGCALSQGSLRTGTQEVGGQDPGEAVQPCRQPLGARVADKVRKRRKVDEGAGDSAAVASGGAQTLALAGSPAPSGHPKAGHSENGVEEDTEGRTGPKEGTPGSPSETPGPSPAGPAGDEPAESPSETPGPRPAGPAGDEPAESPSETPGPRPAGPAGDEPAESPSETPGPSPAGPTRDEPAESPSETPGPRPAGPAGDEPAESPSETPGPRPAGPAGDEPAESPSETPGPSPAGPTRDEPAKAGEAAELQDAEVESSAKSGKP
# Chain of UniProt Q8IY22 (Q8IY22 whole entry): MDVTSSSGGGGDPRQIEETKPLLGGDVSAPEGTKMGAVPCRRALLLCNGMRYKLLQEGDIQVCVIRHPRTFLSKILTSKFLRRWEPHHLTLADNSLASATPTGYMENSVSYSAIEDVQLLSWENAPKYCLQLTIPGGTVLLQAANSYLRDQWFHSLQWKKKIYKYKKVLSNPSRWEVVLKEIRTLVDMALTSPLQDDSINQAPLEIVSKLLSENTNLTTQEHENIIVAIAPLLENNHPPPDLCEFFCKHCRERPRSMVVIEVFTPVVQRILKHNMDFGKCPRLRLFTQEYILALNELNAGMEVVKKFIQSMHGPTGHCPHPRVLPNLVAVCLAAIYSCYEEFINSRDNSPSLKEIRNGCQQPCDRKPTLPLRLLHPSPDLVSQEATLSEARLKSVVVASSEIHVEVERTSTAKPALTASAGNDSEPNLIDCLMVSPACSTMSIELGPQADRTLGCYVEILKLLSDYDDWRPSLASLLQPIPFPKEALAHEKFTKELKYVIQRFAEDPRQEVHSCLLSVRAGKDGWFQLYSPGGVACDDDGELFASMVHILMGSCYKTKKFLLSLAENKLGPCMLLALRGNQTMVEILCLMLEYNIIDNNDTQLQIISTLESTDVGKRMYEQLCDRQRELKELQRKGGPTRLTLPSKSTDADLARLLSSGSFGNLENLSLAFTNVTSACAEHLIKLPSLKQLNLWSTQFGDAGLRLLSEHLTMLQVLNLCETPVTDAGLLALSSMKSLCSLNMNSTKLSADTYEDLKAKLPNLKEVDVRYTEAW
# Chain of UniProt Q9NWZ5 (Q9NWZ5 whole entry): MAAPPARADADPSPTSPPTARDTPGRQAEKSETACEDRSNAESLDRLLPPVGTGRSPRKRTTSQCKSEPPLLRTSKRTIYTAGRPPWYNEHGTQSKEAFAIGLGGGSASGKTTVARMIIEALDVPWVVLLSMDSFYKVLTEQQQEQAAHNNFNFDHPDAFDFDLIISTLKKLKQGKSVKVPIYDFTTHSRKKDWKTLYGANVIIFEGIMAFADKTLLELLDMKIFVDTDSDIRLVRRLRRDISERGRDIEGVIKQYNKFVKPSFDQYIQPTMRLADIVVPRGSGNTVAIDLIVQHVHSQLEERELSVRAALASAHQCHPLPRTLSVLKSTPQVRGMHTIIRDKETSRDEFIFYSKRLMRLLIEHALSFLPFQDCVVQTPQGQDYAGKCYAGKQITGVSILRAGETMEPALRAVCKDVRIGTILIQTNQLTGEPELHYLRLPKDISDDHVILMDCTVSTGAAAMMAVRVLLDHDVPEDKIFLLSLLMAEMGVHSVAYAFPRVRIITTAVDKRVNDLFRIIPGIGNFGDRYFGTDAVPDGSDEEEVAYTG
# Chain of UniProt Q9H2G9 (Q9H2G9 whole entry): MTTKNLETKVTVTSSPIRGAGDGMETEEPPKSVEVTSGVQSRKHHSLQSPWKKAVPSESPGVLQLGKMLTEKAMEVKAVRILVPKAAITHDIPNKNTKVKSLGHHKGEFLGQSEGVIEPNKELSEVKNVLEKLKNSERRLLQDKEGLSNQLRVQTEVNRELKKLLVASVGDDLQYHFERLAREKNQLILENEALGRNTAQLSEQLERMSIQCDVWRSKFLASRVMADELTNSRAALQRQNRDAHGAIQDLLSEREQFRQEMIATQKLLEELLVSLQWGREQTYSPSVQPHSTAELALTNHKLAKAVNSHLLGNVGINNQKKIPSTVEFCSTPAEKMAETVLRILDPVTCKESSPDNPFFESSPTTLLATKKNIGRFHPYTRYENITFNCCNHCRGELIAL
# Chain of UniProt Q9BT67 (Q9BT67 whole entry): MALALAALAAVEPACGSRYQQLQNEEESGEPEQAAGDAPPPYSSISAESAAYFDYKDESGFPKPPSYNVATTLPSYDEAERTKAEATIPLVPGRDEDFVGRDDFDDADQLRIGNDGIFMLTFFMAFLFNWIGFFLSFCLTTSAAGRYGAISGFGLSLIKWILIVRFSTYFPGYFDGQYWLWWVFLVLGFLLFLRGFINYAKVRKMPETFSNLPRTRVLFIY
Target,thermal stability z-score (potassium arsenate),thermal stability z-score (lipoamide; [1]),thermal stability z-score (lipoamide; arsenate co-treatment: none)
EDEM3 (UniProt Q9BZQ6),0.485,-3.5,-2.77
DDX23 (UniProt Q9BUQ8),-0.836,0.326,0.137
NNMT (UniProt P40261),0.0978,1.79,1.62
CLIC4 (UniProt Q9Y696),-0.572,0.264,0.427
SLCO4A1 (UniProt Q96BD0),0.0663,0.0123,-0.101
C7ORF50 (UniProt Q9BRJ6),-0.593,-0.995,-0.353
SEC16A (UniProt O15027),0.285,0.237,1.39
NPC2 (UniProt P61916),-0.391,0.0993,0.738
AGRN (UniProt O00468),0.582,-0.718,-1.6
TPRKB (UniProt Q9Y3C4),-0.881,-0.134,-0.764
FAS (UniProt P25445),0.539,0.392,0.673
RDH11 (UniProt Q8TC12),0.385,-0.514,0.808
PFDN2 (UniProt Q9UHV9),0.132,0.967,1.21
CDK12 (UniProt Q9NYV4),-0.614,-0.233,0.0238
COBL (UniProt O75128),-0.0126,0.182,0.154
BNIP1 (UniProt Q12981),0.0814,0.261,-0.294
TRABD2A (UniProt Q86V40),0.517,-0.806,-1.21
TMA16 (UniProt Q96EY4),-0.0752,-0.345,-0.0887
PTPN11 (UniProt Q06124),-0.559,0.431,0.267
SH3GL1 (UniProt Q99961),0.538,-0.0464,0.144
SDAD1 (UniProt Q9NVU7),-0.469,0.0663,-0.0856
XYLB (UniProt O75191),0.149,-0.0179,-0.17
AGAP3 (UniProt Q96P47),-0.25,0.0887,-0.377
UCKL1 (UniProt Q9NWZ5),0.0426,-0.158,-0.483
RBM10,1.25,3.5,2.13
RRP12 (UniProt Q5JTH9),0.0662,0.612,0.819
FAM98B (UniProt Q52LJ0),-1.01,0.052,-0.438
IMPA1 (UniProt P29218),0.0144,0.595,0.776

Target,thermal stability z-score (potassium arsenate),thermal stability z-score (lipoamide; [1]),thermal stability z-score (lipoamide; arsenate co-treatment: none)
NDFIP1 (UniProt Q9BT67),1.41,1.07,0.0758
CENPH (UniProt Q9H3R5),0.184,-0.976,0.153
PFKFB3 (UniProt Q16875),0.00649,-0.179,-0.149
FAR1 (UniProt Q8WVX9),0.544,-0.177,-0.0751
TMEM206 (UniProt Q9H813),-0.299,0.109,0.0248
MEF2D (UniProt Q14814),0.288,0.00357,0.197
HMG20A (UniProt Q9NP66),0.344,0.359,-0.371
RRBP1 (UniProt Q9P2E9),-0.458,0.226,0.25
BLZF1 (UniProt Q9H2G9),-0.103,-0.0966,0.122
AGFG2 (UniProt O95081),-0.791,-0.423,-0.0283
ATXN10 (UniProt Q9UBB4),-1.03,0.258,0.374
PSMD8 (UniProt P48556),-0.197,0.814,0.532
B2M (UniProt P61769),1.06,-0.115,-0.125
CMIP (UniProt Q8IY22),-0.236,-0.151,-0.146
ADAM15 (UniProt Q13444),-0.1,-1.37,-1.49
OGFR (UniProt Q9NZT2),1.72,0.681,0.943
GMPPA (UniProt Q96IJ6),-0.0973,-0.54,-1.04
CCNK (UniProt O75909),-0.771,0.743,-0.222
TJAP1 (UniProt Q5JTD0),-0.0307,-1.54,-0.576
DDX5 (UniProt P17844),-1.9,0.954,1.43
ABCB6 (UniProt Q9NP58),-0.252,-0.585,-0.323
SEL1L (UniProt Q9UBV2),0.614,-2.16,-1.76
RASAL2 (UniProt Q9UJF2),-0.227,-0.126,0.0905
EDC3 (UniProt Q96F86),-0.555,-0.713,-0.608
DERL2 (UniProt Q9GZP9),0.0606,-0.00701,-0.0318
OSBP2 (UniProt Q969R2),-0.124,0.192,0.026
EIF6 (UniProt P56537),-2.24,-0.689,-0.681
